Measurements reported in the supplement of paper PMC8612539.
Values after ≈ are worked out from the molar mass of the structure shown.

System: Pasteurella multocida
Assay: minimum inhibitory concentration (MIC)
Description: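 Broth microdilution MIC (Sensititre BOPO7F bovine plate, CLSI methods) of 19 antimicrobials against field isolates of P. multocida, M. haemolytica, H. somni (deep nasopharyngeal swabs) and E. coli, Enterococcus spp. (rectal swabs) from weaned dairy heifers. Incubation 16-24 h at 35 C. MIC is the lowest concentration preventing visible growth. Values with <= or > lie at the tested range limits. Trimethoprim-sulfamethoxazole is given as the trimethoprim component of a 1:19 mixture.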

CN1C[C@@H]2C[C@H]1CN2c1cc2c(cc1F)c(=O)c(C(=O)O)cn2C1CC1 [Danofloxacin]
Conditions | minimum inhibitory concentration [µg/mL]
isolate (source animal id): 10 | > 1
isolate (source animal id): 11 | 1 (≈ 2.8 µM)
isolate (source animal id): 12 | > 1
isolate (source animal id): 19 | > 1
isolate (source animal id): 23 | 1 (≈ 2.8 µM)
isolate (source animal id): 26 | > 1
isolate (source animal id): 98 | > 1
isolate (source animal id): 104 | 1 (≈ 2.8 µM)
isolate (source animal id): 115 | ≤ 0.12
isolate (source animal id): 117 | > 1
isolate (source animal id): 118 | > 1
isolate (source animal id): 121 | ≤ 0.12
isolate (source animal id): 124 | > 1
isolate (source animal id): 125 | > 1
isolate (source animal id): 128 | ≤ 0.12
isolate (source animal id): 131 | > 1
isolate (source animal id): 135 | > 1
isolate (source animal id): 136 | ≤ 0.12
isolate (source animal id): 140 | > 1
isolate (source animal id): 144 | 1 (≈ 2.8 µM)
isolate (source animal id): 146 | 1 (≈ 2.8 µM)
isolate (source animal id): 150 | ≤ 0.12
isolate (source animal id): 151 | ≤ 0.12
isolate (source animal id): 153 | 1 (≈ 2.8 µM)
isolate (source animal id): 155 | > 1
isolate (source animal id): 157 | > 1
isolate (source animal id): 160 | ≤ 0.12
isolate (source animal id): 164 | ≤ 0.12
isolate (source animal id): 165 | ≤ 0.12
isolate (source animal id): 167 | ≤ 0.12
isolate (source animal id): 168 | > 1
isolate (source animal id): 169 | ≤ 0.12
isolate (source animal id): 170 | ≤ 0.12
isolate (source animal id): 171 | ≤ 0.12
isolate (source animal id): 172 | ≤ 0.12
isolate (source animal id): 173 | > 1
isolate (source animal id): 174 | ≤ 0.12
isolate (source animal id): 175 | ≤ 0.12
isolate (source animal id): 176 | ≤ 0.12
isolate (source animal id): 177 | ≤ 0.12
isolate (source animal id): 178 | ≤ 0.12
isolate (source animal id): 179 | ≤ 0.12
isolate (source animal id): 182 | ≤ 0.12
isolate (source animal id): 192 | ≤ 0.12
isolate (source animal id): 193 | ≤ 0.12
isolate (source animal id): 195 | ≤ 0.12
isolate (source animal id): 196 | ≤ 0.12
isolate (source animal id): 197 | ≤ 0.12
isolate (source animal id): 198 | > 1
isolate (source animal id): 199 | ≤ 0.12
isolate (source animal id): 200 | ≤ 0.12
isolate (source animal id): 201 | ≤ 0.12
isolate (source animal id): 203 | ≤ 0.12
isolate (source animal id): 204 | ≤ 0.12
isolate (source animal id): 205 | > 1
isolate (source animal id): 206 | ≤ 0.12
isolate (source animal id): 207 | ≤ 0.12
isolate (source animal id): 208 | ≤ 0.12
isolate (source animal id): 209 | ≤ 0.12
isolate (source animal id): 210 | > 1
isolate (source animal id): 213 | ≤ 0.12
isolate (source animal id): 216 | ≤ 0.12
isolate (source animal id): 223 | > 1
isolate (source animal id): 227 | ≤ 0.12
isolate (source animal id): 229 | > 1
isolate (source animal id): 233 | > 1
isolate (source animal id): 234 | > 1
isolate (source animal id): 237 | > 1
isolate (source animal id): 241 | > 1
isolate (source animal id): 245 | > 1
isolate (source animal id): 247 | 1 (≈ 2.8 µM)
isolate (source animal id): 250 | > 1
isolate (source animal id): 254 | > 1
isolate (source animal id): 255 | > 1
isolate (source animal id): 258 | ≤ 0.12
isolate (source animal id): 261 | > 1
isolate (source animal id): 262 | > 1
isolate (source animal id): 269 | 0.25 (≈ 0.7 µM)
isolate (source animal id): 270 | > 1
isolate (source animal id): 274 | > 1
isolate (source animal id): 275 | > 1
isolate (source animal id): 276 | > 1
isolate (source animal id): 277 | 0.25 (≈ 0.7 µM)
isolate (source animal id): 278 | > 1
isolate (source animal id): 279 | 1 (≈ 2.8 µM)
isolate (source animal id): 280 | > 1
isolate (source animal id): 284 | > 1
isolate (source animal id): 285 | > 1
isolate (source animal id): 287 | > 1
isolate (source animal id): 290 | ≤ 0.12
isolate (source animal id): 294 | ≤ 0.12
isolate (source animal id): 295 | ≤ 0.12
isolate (source animal id): 296 | > 1
isolate (source animal id): 307 | ≤ 0.12
isolate (source animal id): 310 | ≤ 0.12
isolate (source animal id): 311 | ≤ 0.12
isolate (source animal id): 312 | > 1
isolate (source animal id): 313 | > 1
isolate (source animal id): 315 | > 1
isolate (source animal id): 316 | > 1
